Test results reported in patent publication US20020025918A1, “Methods of using helical peptides in plants” (priority 1987, published 2002).
≈ marks a conversion by molar mass, not a printed value. Residues, ends and D or L forms follow the SMILES beside them.

How the values were obtained:
S. auerus = assay: Synergy of lytic peptide with antibiotics; conditions: Manitou-1 0 μM
E. coli [1] = assay: Synergy of lytic peptide with antibiotics; conditions: Manitou-1 0 μM
P. aeruginosa = assay: MBC and MIC susceptibility test; assay type: cell-based; conditions: for MBC: Table III, P. aeuriginosa (−)
E. coli [2] = assay: MBC and MIC susceptibility test; assay type: cell-based; conditions: for MBC: Table III
S. aureus = assay: MBC and MIC susceptibility test; assay type: cell-based
EL-4 lymphoma cells = assay: EL-4 cell killing, trypan blue exclusion; conditions: one hour, 37° C.

[H]/N=C(/N)N[C@H]1[C@H](O)[C@@H](O)[C@H](O[C@@H]2O[C@@H](C)[C@](O)(C=O)[C@H]2O[C@@H]2O[C@@H](CO)[C@H](O)[C@@H](O)[C@@H]2NC)[C@@H](N/C(N)=N\[H])[C@@H]1O [Streptomycin, reference compound]
% Cell Death In S. auerus (S. auerus; antibiotic 0.5 μM alone): 0%
% Cell Death In S. auerus (S. auerus; antibiotic 5.0 μM alone): 87%
% Cell Death In E. coli (E. coli [1]; antibiotic 0.5 μM alone): 0%
% Cell Death In E. coli (E. coli [1]; antibiotic 5.0 μM alone): 87%

CN(C)[C@@H]1C(O)=C(C(N)=O)C(=O)[C@@]2(O)C(O)=C3C(=O)c4c(O)cccc4[C@@](C)(O)[C@H]3C[C@@H]12 [Tetracycline, reference compound]
% Cell Death In S. auerus (S. auerus; antibiotic 0.5 μM alone): 0%
% Cell Death In S. auerus (S. auerus; antibiotic 5.0 μM alone): 35%
% Cell Death In E. coli (E. coli [1]; antibiotic 0.5 μM alone): 0%
% Cell Death In E. coli (E. coli [1]; antibiotic 5.0 μM alone): 58%

CC(C)C[C@H](NC(=O)[C@H](C)NC(=O)[C@H](CC(C)C)NC(=O)[C@H](C)NC(=O)[C@H](CC(C)C)NC(=O)[C@H](CCCCN)NC(=O)[C@H](C)NC(=O)[C@H](CC(C)C)NC(=O)[C@H](CCCCN)NC(=O)[C@H](CCCCN)NC(=O)[C@H](C)NC(=O)[C@H](CC(C)C)NC(=O)[C@H](CCCCN)NC(=O)[C@H](CCCCN)NC(=O)[C@H](CC(C)C)NC(=O)[C@H](CCCCN)NC(=O)[C@H](CCCCN)NC(=O)[C@H](C)NC(=O)[C@H](CC(C)C)NC(=O)[C@H](CCCCN)NC(=O)[C@H](CCCCN)NC(=O)[C@H](C)NC(=O)[C@@H](N)Cc1ccccc1)C(N)=O [Shiva-10]
MBC (P. aeruginosa): 2.0 µM (≈ 5.07 µg/mL)
MBC (E. coli [2]): 1.0 µM (≈ 2.54 µg/mL)

CC(C)C[C@H](NC(=O)[C@H](C)NC(=O)[C@H](CCCCN)NC(=O)[C@H](CCCCN)NC(=O)[C@H](CC(C)C)NC(=O)[C@H](C)NC(=O)[C@H](CCCCN)NC(=O)[C@H](CCCCN)NC(=O)[C@H](CC(C)C)NC(=O)[C@H](CCCCN)NC(=O)[C@H](CCCCN)NC(=O)[C@H](CC(C)C)NC(=O)[C@H](C)NC(=O)[C@H](CCCCN)NC(=O)[C@H](CCCCN)NC(=O)[C@H](CC(C)C)NC(=O)[C@H](C)NC(=O)[C@H](CCCCN)NC(=O)[C@H](CC(C)C)NC(=O)[C@H](C)NC(=O)[C@H](CC(C)C)NC(=O)[C@H](C)NC(=O)[C@@H](N)Cc1ccccc1)C(N)=O [Hecate-1] (H-FALALKALKKALKKLKKALKKAL-NH2)
MBC (P. aeruginosa): 10.0 µM (≈ 25.4 µg/mL)
MBC (E. coli [2]): 4.0 µM (≈ 10.1 µg/mL)

CC(C)C[C@H](NC(=O)[C@H](CCCCN)NC(=O)[C@H](C)NC(=O)[C@H](CC(C)C)NC(=O)[C@H](CCCCN)NC(=O)[C@H](CCCCN)NC(=O)[C@H](C)NC(=O)[C@H](CC(C)C)NC(=O)[C@H](CCCCN)NC(=O)[C@H](C)NC(=O)[C@H](CC(C)C)NC(=O)[C@H](CCCCN)NC(=O)[C@H](CCCCN)NC(=O)[C@@H](N)CC(C)C)C(=O)N[C@@H](C)C(=O)N[C@@H](CCCCN)C(=O)N[C@@H](CCCCN)C(=O)N[C@@H](CC(C)C)C(=O)N[C@@H](C)C(=O)N[C@@H](CCCCN)C(=O)N[C@@H](CCCCN)C(N)=O [Anubis-8]
antibacterial result of treatment (Table I; MBC) (S. aureus; S. auerus (+)): 8 µM
antibacterial result of treatment (Table I; MBC) (P. aeruginosa; P. aeruginosa (−)): 16 µM
antibacterial result of treatment (Table I; MBC) (E. coli [2]): 16 µM

CC[C@H](C)[C@H](NC(=O)CNC(=O)[C@H](CC(N)=O)NC(=O)[C@H](CCCNC(=N)N)NC(=O)[C@@H](NC(=O)[C@H](CC(N)=O)NC(=O)[C@H](CCCNC(=N)N)NC(=O)CNC(=O)[C@@H](NC(=O)[C@H](CCCCN)NC(=O)[C@H](CCC(=O)O)NC(=O)[C@@H](NC(=O)[C@H](CCCCN)NC(=O)[C@H](CCCCN)NC(=O)[C@H](Cc1ccccc1)NC(=O)[C@@H](NC(=O)[C@H](CCCCN)NC(=O)[C@H](Cc1c[nH]c2ccccc12)NC(=O)[C@H](CCCCN)NC(=O)[C@@H]1CCCN1C(=O)[C@@H](N)CCSC)C(C)C)[C@@H](C)CC)C(C)C)[C@@H](C)CC)C(=O)N[C@H](C(=O)N[C@@H](CCCCN)C(=O)N[C@@H](C)C(=O)NCC(=O)N1CCC[C@H]1C(=O)N[C@@H](C)C(=O)N[C@H](C(=O)N[C@@H](C)C(=O)N[C@H](C(=O)N[C@@H](CC(C)C)C(=O)NCC(=O)N[C@@H](CCC(=O)O)C(=O)N[C@@H](C)C(=O)N[C@@H](CCCCN)C(=O)N[C@@H](C)C(=O)N[C@@H](CC(C)C)C(=O)NCC(N)=O)C(C)C)[C@@H](C)CC)C(C)C [SB-37] (H-MPKWKVFKKIEKVGRNIRNGIVKAGPAIAVLGEAKALG-NH2)
MBC (S. aureus; Table III, S. aureus (+)): 64 µM (≈ 262 µg/mL)
MBC (P. aeruginosa): 3.5 µM (≈ 14.3 µg/mL)
MBC (E. coli [2]): 2.0 µM (≈ 8.18 µg/mL)

CC[C@H](C)[C@H](NC(=O)CNC(=O)[C@H](CCC(N)=O)NC(=O)[C@H](CCCCN)NC(=O)[C@@H](NC(=O)[C@H](CCC(N)=O)NC(=O)[C@H](CCCCN)NC(=O)CNC(=O)[C@@H](NC(=O)[C@H](CCCNC(=N)N)NC(=O)[C@H](CC(=O)O)NC(=O)[C@@H](NC(=O)[C@H](CCCNC(=N)N)NC(=O)[C@H](CCCNC(=N)N)NC(=O)[C@H](Cc1ccccc1)NC(=O)[C@H](CC(C)C)NC(=O)[C@H](CCCNC(=N)N)NC(=O)[C@H](Cc1c[nH]c2ccccc12)NC(=O)[C@H](CCCNC(=N)N)NC(=O)[C@@H]1CCCN1C(=O)[C@@H](N)CCSC)[C@@H](C)CC)C(C)C)[C@@H](C)CC)C(=O)N[C@@H](CC(C)C)C(=O)N[C@@H](CCCNC(=N)N)C(=O)N[C@@H](C)C(=O)NCC(=O)N1CCC[C@H]1C(=O)N[C@@H](C)C(=O)N[C@H](C(=O)N[C@@H](C)C(=O)N[C@@H](CC(C)C)C(=O)N[C@H](C(=O)NCC(=O)N[C@@H](CC(=O)O)C(=O)N[C@@H](C)C(=O)N[C@@H](CCCNC(=N)N)C(=O)N[C@@H](C)C(=O)N[C@H](C(=O)NCC(N)=O)C(C)C)C(C)C)[C@@H](C)CC [Shiva-1] (H-MPRWRLFRRIDRVGKQIKQGILRAGPAIALVGDARAVG-NH2; N-terminus and C-terminus assumed)
% EL-4 Cells Killed (EL-4 lymphoma cells; 10 μM peptide): 2%
% EL-4 Cells Killed (EL-4 lymphoma cells; 25 μM peptide): 18%
% EL-4 Cells Killed (EL-4 lymphoma cells; 50 μM peptide): 42%
% EL-4 Cells Killed (EL-4 lymphoma cells; 100 μM peptide): 87%
